In publication PMC5988692, “AZ304, a novel dual BRAF inhibitor, exerts anti-tumour effects in colorectal cancer independently of BRAF genetic status” (British Journal of Cancer, 2018):
Like-named read-outs stand apart in the source and are kept apart here.

How the values were obtained:
Assay type in all cases: cell-based
p-ERK in SK-MEL-31 cells = experiment: SK-MEL-31 p-ERK cellular assay; settings: Homo sapiens, 1.25 h, read-out: EC50, reduction of p-ERK
A2058 = experiment: Cell proliferation assay (cell panel, MTS); settings: Homo sapiens, 72 h; A2058, Melanoma, BRAF V600E HT, RAS WT, 3 days
Procedure: (§1) The proliferation assays against a cell panel were performed as described in ref.[18] Briefly, the cells were treated with DMSO or multiple concentrations of AZ304 for 3 days. The cell growth was determined using the CellTiter 96 Aqueous One Cell Proliferation Assay (Promega, Madison, WI). […] The assays were done in triplicate across different plates.
(§2) Anti-proliferative activity of AZ304 against a panel of cell lines with different BRAF and RAS genetic status. […] Cell growth was determined by MTS assay.

A375pgp = experiment: Cell proliferation assay (cell panel, MTS); settings: Homo sapiens, 72 h, Melanoma, BRAF V600E HM, RAS WT, 3 days
Procedure: as §1, §2

A375 = experiment: Cell proliferation assay (cell panel, MTS); settings: Homo sapiens, A-375, 72 h; A375, Melanoma, BRAF V600E HM, RAS WT, 3 days
Procedure: as §1, §2

A549 = experiment: Cell proliferation assay (cell panel, MTS); settings: Homo sapiens, 72 h; A549, Lung, BRAF WT, KRAS MT, 3 days
Procedure: as §1, §2

COLO205 = experiment: Cell proliferation assay (cell panel, MTS); settings: Homo sapiens, COLO 205, 72 h; COLO205, Colon, BRAF V600E HT, RAS WT, 3 days
Procedure: as §1, §2

Calu-6 = experiment: Cell proliferation assay (cell panel, MTS); settings: Homo sapiens, 72 h; Calu-6, Lung, BRAF WT, KRAS MT, 3 days
Procedure: as §1, §2

DU145 = experiment: Cell proliferation assay (cell panel, MTS); settings: Homo sapiens, DU-145, 72 h; DU145, Prostate, BRAF WT, RAS WT, 3 days
Procedure: as §1, §2

HT29 = experiment: Cell proliferation assay (cell panel, MTS); settings: Homo sapiens, HT-29, 72 h; HT29, Colon, BRAF V600E HT, RAS WT, 3 days
Procedure: as §1, §2

IM-9 = experiment: Cell proliferation assay (cell panel, MTS); settings: Homo sapiens, 72 h; IM-9, Lymphoma, BRAF WT, NRAS MT, 3 days
Procedure: as §1, §2

JVM-3 = experiment: Cell proliferation assay (cell panel, MTS); settings: Homo sapiens, 72 h; JVM-3, Lymphoma, BRAF K601N, RAS WT, 3 days
Procedure: as §1, §2

L-363 = experiment: Cell proliferation assay (cell panel, MTS); settings: Homo sapiens, 72 h; L-363, Leukemia, BRAF WT, NRAS MT, 3 days
Procedure: as §1, §2

LNCaP clone FGC = experiment: Cell proliferation assay (cell panel, MTS); settings: Homo sapiens, 72 h, Prostate, BRAF WT, RAS WT, 3 days
Procedure: as §1, §2

MC-F7 = experiment: Cell proliferation assay (cell panel, MTS); settings: Homo sapiens, MCF7, 72 h; MC-F7, Breast, BRAF WT, RAS WT, 3 days
Procedure: as §1, §2

MDA-MB-231 = experiment: Cell proliferation assay (cell panel, MTS); settings: Homo sapiens, 72 h; MDA-MB-231, Breast, BRAF G464V HT, KRAS MT, 3 days
Procedure: as §1, §2

MIAPaCa-2 = experiment: Cell proliferation assay (cell panel, MTS); settings: Homo sapiens, MIA PaCa-2, 72 h; MIAPaCa-2, Pancreas, BRAF WT, KRAS MT, 3 days
Procedure: as §1, §2

Melma-3M = experiment: Cell proliferation assay (cell panel, MTS); settings: Homo sapiens, 72 h, Melanoma, BRAF V600E, RAS WT, 3 days
Procedure: as §1, §2

NCI-H23 = experiment: Cell proliferation assay (cell panel, MTS); settings: Homo sapiens, 72 h; NCI-H23, Lung, BRAF WT, KRAS MT, 3 days
Procedure: as §1, §2

NCI-H460 = experiment: Cell proliferation assay (cell panel, MTS); settings: Homo sapiens, 72 h; NCI-H460, Lung, BRAF WT, KRAS MT, 3 days
Procedure: as §1, §2

NIH: OVCAR-3 = experiment: Cell proliferation assay (cell panel, MTS); settings: Homo sapiens, 72 h; NIH: OVCAR-3, Ovary, BRAF WT, RAS WT, 3 days
Procedure: as §1, §2

PANC-1 = experiment: Cell proliferation assay (cell panel, MTS); settings: Homo sapiens, 72 h; PANC-1, Pancreas, BRAF WT, KRAS MT, 3 days
Procedure: as §1, §2

PC-3 = experiment: Cell proliferation assay (cell panel, MTS); settings: Homo sapiens, 72 h; PC-3, Prostate, BRAF WT, RAS WT, 3 days
Procedure: as §1, §2

SK-MEL-24 = experiment: Cell proliferation assay (cell panel, MTS); settings: Homo sapiens, 72 h; SK-MEL-24, Melanoma, BRAF V600E, RAS WT, 3 days
Procedure: as §1, §2

SK-MEL-28 = experiment: Cell proliferation assay (cell panel, MTS); settings: Homo sapiens, 72 h; SK-MEL-28, Melanoma, BRAF V600E, RAS WT, 3 days
Procedure: as §1, §2

SK-MEL-2 = experiment: Cell proliferation assay (cell panel, MTS); settings: Homo sapiens, 72 h; SK-MEL-2, Melanoma, BRAF WT, NRAS MT, 3 days
Procedure: as §1, §2

SK-MEL-31 = experiment: Cell proliferation assay (cell panel, MTS); settings: Homo sapiens, 72 h; SK-MEL-31, Melanoma, BRAF WT, RAS WT, 3 days
Procedure: as §1, §2

SK-MEL-3 = experiment: Cell proliferation assay (cell panel, MTS); settings: Homo sapiens, SK-MEL3, 72 h; SK-MEL-3, Melanoma, BRAF V600E, RAS WT, 3 days
Procedure: as §1, §2

SK-OV3 = experiment: Cell proliferation assay (cell panel, MTS); settings: Homo sapiens, SK-OV-3, 72 h; SK-OV3, Ovary, BRAF WT, RAS WT, 3 days
Procedure: as §1, §2

SW620 = experiment: Cell proliferation assay (cell panel, MTS); settings: Homo sapiens, SW-620, 72 h; SW620, Colon, BRAF WT, KRAS MT, 3 days
Procedure: as §1, §2

Question: With `COc1ccc2c(Nc3cc(NC(=O)c4cccc(C(C)(C)C#N)c4)ccc3C)ncnc2c1` [AZ304] as the compound, how does the EC50 (p-ERK in SK-MEL-31 cells; SK-MEL-31 (wild type BRAF melanoma), 75 min, without EGF) read?
Answer: 0.06 µM

Question: What about the EC50 (p-ERK in SK-MEL-31 cells; SK-MEL-31, 75 min, with EGF stimulation) of the same compound?
Answer: 0.052 µM

Question: What about the GI50 (A2058) of the same compound?
Answer: 3.82 µM

Question: And the GI50 (A375pgp)?
Answer: 0.43 µM

Question: And the GI50 (A375)?
Answer: 0.23 µM

Question: And the GI50 (A549)?
Answer: 16.7 µM

Question: And the GI50 (COLO205)?
Answer: 0.28 µM

Question: And the GI50 (Calu-6)?
Answer: 5.51 µM

Question: And the GI50 (DU145)?
Answer: 11.7 µM

Question: And the GI50 (HT29)?
Answer: 0.51 µM

Question: What about the GI50 (IM-9) of the same compound?
Answer: 0.9 µM

Question: And the GI50 (JVM-3)?
Answer: 1.68 µM

Question: And the GI50 (L-363)?
Answer: 7.02 µM

Question: And the GI50 (LNCaP clone FGC)?
Answer: 3.32 µM

Question: What about the GI50 (MC-F7) of the same compound?
Answer: 10.1 µM

Question: What about the GI50 (MDA-MB-231) of the same compound?
Answer: 1.99 µM

Question: What about the GI50 (MIAPaCa-2) of the same compound?
Answer: 1.16 µM

Question: And the GI50 (Melma-3M)?
Answer: 0.1 µM

Question: And the GI50 (NCI-H23)?
Answer: 3.99 µM

Question: What about the GI50 (NCI-H460) of the same compound?
Answer: 8.56 µM

Question: And the GI50 (NIH: OVCAR-3)?
Answer: 11 µM

Question: What about the GI50 (PANC-1) of the same compound?
Answer: 5.45 µM

Question: And the GI50 (PC-3)?
Answer: 6.68 µM

Question: What about the GI50 (SK-MEL-24) of the same compound?
Answer: 0.08 µM

Question: And the GI50 (SK-MEL-28)?
Answer: 0.5 µM

Question: And the GI50 (SK-MEL-2)?
Answer: 3.91 µM

Question: And the GI50 (SK-MEL-31)?
Answer: 0.43 µM

Question: And the GI50 (SK-MEL-3)?
Answer: 0.53 µM

Question: What about the GI50 (SK-OV3) of the same compound?
Answer: 6.18 µM

Question: And the GI50 (SW620)?
Answer: 2.78 µM
